According to patent EP1001769B1, “SOLUBLE PRODRUGS OF PACLITAXEL” (BAKER NORTON PHARMACEUTICALS, INC., priority 1997, dated 1998):
Counter-ions that a name gives are not always drawn.

Tests used:
Format in all cases: physicochemical
[1] = Stability of paclitaxel-2'-MPA solution in water/polyethylene glycol, analysed by HPLC
Procedure: The onium salt paclitaxel-2'-MPA was prepared by the method of Nicolaou et al., Angew. Chim. Int. Engl., 33:1583-1587 ([…]). A 2.40 mg/ml solution of the paclitaxel-2'-MPA was prepared by dissolving the salt (10.2 mg) in a solution of water (3.024 ml) and polyethylene glycol (1.234 ml). Samples of this solution were frozen. The frozen samples were slowly warmed to room temperature and homogenized with CH3CN (50 µl). An aliquot (50 µl) was removed and diluted to a final volume of 200 µl with deionized H2O and analyzed via HPLC (20 µl injection).

[2] = as above; conditions: freshly prepared solution 0.53 mg/ml in CH3CN, HPLC trace
[3] = Solubility in deionized water; conditions: 0.97 and 0.80 mg in 0.5 ml deionized water, sonicated about 1 minute; 1.54 mg sample needed additional 0.1 ml; upper limit not attained
Procedure: Solubility: Deionized water (0.5 ml) was added to three samples of the 2'-MPM (1.54 mg, 0.97 mg and 0.80 mg) and the flask sonicated for approximately one (1) minute.

[4] = Extraction from water into CH2Cl2; conditions: about 1 mg in 1 ml water stirred with 1 ml CH2Cl2; residue of organic phase weighed
Procedure: Extraction: Three samples (1.2, 1.0 and 0.98 mg) were dissolved in water (1 ml) and vigorously stirred with CH2Cl2 (1 ml). The organic phase was transferred to a clean, tared vial and concentrated in vacuo. The residue was weighed and compared to the theoretical input to gauge the effectiveness of the extraction procedure. Average return for this extraction was about 44% of theoretical.

[5] = Aqueous stability of the prodrug in H2O and 0.2M NaCl
Procedure: Aqueous Stability: The stability of the prodrug in H2O and 0.2M NaCI was examined at both room temperature and under refrigerated conditions. Samples in H2O (0.54 mg in 2 ml) and NaCI (0.57 mg in 2 ml) at room temperature were examined at two minute time intervals (0 through 12 minutes), 2 hours and 24 hours. […] At 4°C the product concentration was unchanged at 24 and 48 hours but decreased to 90% after 72 hours. […] At 4°C the product concentration was unchanged at 24 hours, was 91% at 48 hours and was 88% at 72 hours.

[6] = freshly prepared solution 0.53 mg/ml in CH3CN, HPLC trace

SMILES: CC(=O)O[C@H]1C(=O)[C@@]2(C)[C@H]([C@H](OC(=O)c3ccccc3)[C@]3(O)C[C@H](OC(=O)[C@H](Oc4cccc[n+]4C)[C@@H](NC(=O)c4ccccc4)c4ccccc4)C(C)=C1C3(C)C)[C@]1(OC(C)=O)CO[C@@H]1C[C@@H]2O [2'-MPA, Paclitaxel 2'-Methylpyridinium Acetate]
- 2'-MPA % ([1]; 4°C, 1 Hour): 85%
- Paclita. % ([1]; 4°C, 1 Hour): 15%
- 2'-MPA % ([1]; 4°C, 2 Weeks): 79%
- Paclita. % ([1]; 4°C, 2 Weeks): 9%
- Unkno. % ([1]; 4°C, 2 Weeks): 10%
- 2'-MPA % ([1]; 4°C, 6 Hours): 75%
- Paclita. % ([1]; 4°C, 6 Hours): 11%
- Unkno. % ([1]; 4°C, 6 Hours): 14%
- 2'-MPA % ([1]; 4°C, 18 Hours): 73%
- Paclita. % ([1]; 4°C, 18 Hours): 10%
- Unkno. % ([1]; 4°C, 18 Hours): 17%
- 2'-MPA % ([1]; 4°C, 18 Hours, listed as MPA salt): 73%
- 2'-MPA % ([1]; 4°C, 42 Hours): 79%
- Paclita. % ([1]; 4°C, 42 Hours): 9%
- Unkno. % ([1]; 4°C, 42 Hours): 12%
- 2'-MPA % ([1]; 4°C, 66 Hours): 73%
- Paclita. % ([1]; 4°C, 66 Hours): 11%
- Unkno. % ([1]; 4°C, 66 Hours): 16%
- 2'-MPA % ([1]; Room Temperature, 1 Hour): 78%
- Paclita. % ([1]; Room Temperature, 1 Hour): 14%
- Unkno. % ([1]; Room Temperature, 1 Hour): 8%
- 2'-MPA % ([1]; Room Temperature, 6 Hours): 78%
- Paclita. % ([1]; Room Temperature, 6 Hours): 14%
- Unkno. % ([1]; Room Temperature, 6 Hours): 8%
- 2'-MPA % ([1]; Room Temperature, 18 Hours): 69%
- 2'-MPA % ([1]; Room Temperature, 42 Hours): 73%
- Paclita. % ([1]; Room Temperature, 42 Hours): 17%
- Unkno. % ([1]; Room Temperature, 42 Hours): 10%
- 2'-MPA % ([1]; Room Temperature, 66 Hours): 79%
- Paclita. % ([1]; Room Temperature, 66 Hours): 13%
- Unkno. % ([1]; Room Temperature, 66 Hours): 8%
- 2'-MPA % ([1]; Room Temperature, 90 Hours): 73%
- Paclita. % ([1]; Room Temperature, 90 Hours): 15%
- Unkno. % ([1]; Room Temperature, 90 Hours): 12%
- 2'-MPA peak [1, 6]: 75%
- Unknown peak [1, 6]: 10%
- Paclitaxel peak [2]: 15%

SMILES: CC(=O)O[C@H]1C(=O)[C@@]2(C)[C@H]([C@H](OC(=O)c3ccccc3)[C@]3(O)C[C@H](OC(=O)[C@H](Oc4cccc[n+]4C)[C@@H](NC(=O)c4ccccc4)c4ccccc4)C(C)=C1C3(C)C)[C@]1(OC(C)=O)CO[C@@H]1C[C@@H]2O [Paclitaxel 2'-MPM, Paclitaxel-2'-Methylpyridinium Mesylate]
- Solubility [3]: Solution was attained
- Average return for this extraction [4]: about 44 % of theoretical
- product concentration ([5]; H2O, 4°C, 24 hours): unchanged
- product concentration ([5]; H2O, 4°C, 48 hours): unchanged
- product concentration ([5]; H2O, 4°C, 72 hours): 90%
- product concentration ([5]; H2O, room temperature, 2 hours): relatively unchanged
- product concentration ([5]; H2O, room temperature, 24 hours): 56%
- stability in aqueous solution ([5]; aqueous solution, 4°C, 24 hours (summary of Example 2)): unchanged
- stability in aqueous solution, degraded to ([5]; aqueous solution, 4°C, 72 hours (summary of Example 2)): 88-91%
- product concentration ([5]; saline solution (0.2M NaCl), 4°C, 24 hours): unchanged
- product concentration ([5]; saline solution (0.2M NaCl), 4°C, 48 hours): 91%
- product concentration ([5]; saline solution (0.2M NaCl), 4°C, 72 hours): 88%
- drop of product concentration ([5]; saline solution (0.2M NaCl), room temperature, 2 hours): 1-2%
- product concentration ([5]; saline solution (0.2M NaCl), room temperature, 24 hours): 70%
- product concentration ([5]; saline solution (0.2M NaCl), room temperature, first ten minutes): no apparent change
